From ChEMBL document CHEMBL2346520, “Design, synthesis and biological evaluation of novel imidazo[4,5-c]pyridinecarboxamide derivatives as PARP-1 inhibitors” (Bioorg Med Chem Lett, 2013)

The molecules below were run against T1, Poly [ADP-ribose] polymerase 1 (Homo sapiens, UniProt P09874) (assay: Inhibition of PARP1 (unknown origin)). Conditions: not given.
T1 sequence (P09874 whole entry): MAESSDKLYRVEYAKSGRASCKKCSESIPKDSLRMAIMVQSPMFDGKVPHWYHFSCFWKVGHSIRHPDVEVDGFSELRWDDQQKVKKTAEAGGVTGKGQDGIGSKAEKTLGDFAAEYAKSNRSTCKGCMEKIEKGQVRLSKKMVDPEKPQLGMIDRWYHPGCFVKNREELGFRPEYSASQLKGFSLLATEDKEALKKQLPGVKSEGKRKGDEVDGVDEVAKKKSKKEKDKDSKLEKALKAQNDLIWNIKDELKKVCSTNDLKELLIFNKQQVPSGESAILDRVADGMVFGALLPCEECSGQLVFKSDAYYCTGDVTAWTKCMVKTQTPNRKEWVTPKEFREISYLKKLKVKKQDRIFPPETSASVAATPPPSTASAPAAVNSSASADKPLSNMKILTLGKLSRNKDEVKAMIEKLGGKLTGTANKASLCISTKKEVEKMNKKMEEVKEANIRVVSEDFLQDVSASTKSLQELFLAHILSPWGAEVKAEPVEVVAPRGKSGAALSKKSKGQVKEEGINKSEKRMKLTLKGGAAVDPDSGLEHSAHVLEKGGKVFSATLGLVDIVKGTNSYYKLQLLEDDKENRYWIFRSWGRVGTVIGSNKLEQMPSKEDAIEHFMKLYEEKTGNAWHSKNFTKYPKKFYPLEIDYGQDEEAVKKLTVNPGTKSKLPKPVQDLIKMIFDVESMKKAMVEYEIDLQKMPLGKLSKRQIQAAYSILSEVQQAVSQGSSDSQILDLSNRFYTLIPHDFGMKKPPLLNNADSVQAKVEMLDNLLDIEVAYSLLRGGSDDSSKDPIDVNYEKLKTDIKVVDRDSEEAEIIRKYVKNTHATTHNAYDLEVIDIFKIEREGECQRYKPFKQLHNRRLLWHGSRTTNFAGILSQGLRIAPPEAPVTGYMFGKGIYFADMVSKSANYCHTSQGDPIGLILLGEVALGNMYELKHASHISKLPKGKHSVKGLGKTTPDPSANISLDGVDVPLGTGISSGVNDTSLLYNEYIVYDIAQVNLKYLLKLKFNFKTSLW

| IC50 [nM] | Structure (SMILES) |
| --- | --- |
| 938 | CCCN1CCCC(c2nc3c(C(N)=O)cncc3[nH]2)C1 (configuration not stated) |
| 1450 | CN1CCC(c2nc3c(C(N)=O)cncc3[nH]2)CC1 |
| 825 | NC(=O)c1cncc2[nH]c(C3CCNCC3)nc12 |
| 528 | CCCN1CCC(c2nc3c(C(N)=O)cncc3[nH]2)CC1 |
| 636 | NC(=O)c1cncc2[nH]c(C3CCCNC3)nc12 (configuration not stated) |
| 651 | CC(C)N1CCCC(c2nc3c(C(N)=O)cncc3[nH]2)C1 (configuration not stated) |

The molecules below were run against T1, Poly [ADP-ribose] polymerase 1. Conditions: 100 uM.
Description: Inhibition of PARP1 (unknown origin) at 100 uM

| inhibition [%] | Structure (SMILES) |
| --- | --- |
| 100 | NC(=O)c1cccc(N)c1 |
